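96-well plates; 48 h exposure; 5 concentrations. Endpoints by linear interpolation between flanking doses. Not reached: highest tested concentration assigned. At the GI50, growth is halved.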 Active and inactive are the calls of the source. Rule as the data show it: active = GI50 up to about 1.1 µM and inactive = higher.
How the values were obtained:
Test in all cases: DTP human tumour cell line panel, 48 h
[1] = test system: SNB-78
[2] = test system: COLO 205
[3] = test system: HOP-62
[4] = test system: HL-60
[5] = test system: UACC-257
[6] = test system: CCRF-CEM
[7] = test system: DLD-1
[8] = test system: SK-OV-3
[9] = test system: OVCAR-4
[10] = test system: OVCAR-5
[11] = test system: SNB-75
[12] = test system: TK-10
[13] = test system: SK-MEL-28
[14] = test system: HCT-15
[15] = test system: HCT-116
[16] = test system: HT-29
[17] = test system: A498
[18] = test system: SF-295
[19] = test system: RPMI-8226
[20] = test system: Malme-3M
[21] = test system: OVCAR-3
[22] = test system: SK-MEL-5
[23] = test system: M19-MEL
[24] = test system: IGROV-1
[25] = test system: DMS-273
[26] = test system: RXF 631
[27] = test system: U-251
[28] = test system: KM12
[29] = test system: MOLT-4
[30] = test system: SF-539
[31] = test system: SW-620
[32] = test system: HOP-18
[33] = test system: M14
[34] = test system: EKVX
[35] = test system: CAKI-1
[36] = test system: NCI-H23
[37] = test system: 786-0
[38] = test system: K562
[39] = test system: OVCAR-8
[40] = test system: A549
[41] = test system: HCC 2998
[42] = test system: SK-MEL-2
[43] = test system: UACC-62
[44] = test system: HOP-92
[45] = test system: LOX IMVI
[46] = test system: DMS-114
[47] = test system: KM-20L2
[48] = test system: NCI-H460
[49] = test system: LXFL 529
[50] = test system: RXF 393
[51] = test system: NCI/ADR-RES
[52] = test system: MDA-MB-435
[53] = test system: Hs-578T
[54] = test system: T47D
[55] = test system: BT-549
[56] = test system: SNB-19
[57] = test system: MDA-N
[58] = test system: MCF7
[59] = test system: MDA-MB-231
[60] = test system: XF498
[61] = test system: DU-145
[62] = test system: SR
[63] = test system: PC-3
[64] = test system: ACHN
[65] = test system: NCI-H522
[66] = test system: SN12C
[67] = test system: SF-268
[68] = test system: UO-31

Measured: GI50

CNC(=O)NCNC(=O)NC
inactive: [1] > 100 µM | [2] > 100 µM | [3] > 100 µM | [4] > 100 µM | [5] > 100 µM | [6] > 100 µM | [7] > 100 µM | [8] > 100 µM | [9] > 100 µM | [10] > 100 µM | [11] > 100 µM | [12] > 100 µM | [13] > 100 µM | [15] > 100 µM | [16] > 100 µM | [17] > 100 µM | [18] > 100 µM | [19] > 100 µM | [20] > 100 µM | [21] > 100 µM | [22] > 100 µM | [23] > 100 µM | [24] > 100 µM | [25] > 100 µM | [26] > 100 µM | [27] > 100 µM | [28] > 100 µM | [29] > 100 µM | [30] > 100 µM | [31] > 100 µM | [32] > 100 µM | [33] > 100 µM | [34] > 100 µM | [35] > 100 µM | [36] > 100 µM | [37] > 100 µM | [38] > 100 µM | [39] > 100 µM | [40] > 100 µM | [41] > 100 µM | [42] > 100 µM | [43] > 100 µM | [44] > 100 µM | [45] > 100 µM | [46] > 100 µM | [47] > 100 µM | [48] > 100 µM | [49] > 100 µM
> 100 µM: [14]

COC(=O)C1c2cc3c(c(O)c2C(O)CC1(C)O)C(=O)c1c(O)cc2c(c1C3=O)OC1OC2(C)C(O)C(N(C)C)C1O (centres undefined)
inactive: [1] > 100 µM | [3] 12.7 µM | [50] 12.4 µM | [51] 1.64 µM | [52] 1.75 µM | [4] 12.6 µM | [53] 1.43 µM | [6] 6.37 µM | [54] 1.71 µM | [7] > 100 µM | [9] 12.9 µM | [55] 4.9 µM | [56] 7.06 µM | [18] 12.4 µM | [19] 10.9 µM | [21] 12.7 µM | [57] 1.57 µM | [58] 1.35 µM | [23] > 100 µM | [25] > 100 µM | [29] 6.08 µM | [32] > 100 µM | [59] 1.31 µM | [35] 3.28 µM | [38] 11.3 µM | [39] 11.7 µM | [42] > 100 µM | [60] > 100 µM | [61] 1.7 µM | [44] 26.8 µM | [62] 8.49 µM | [63] 1.2 µM | [46] > 100 µM | [47] > 100 µM | [48] > 100 µM | [49] > 100 µM
11.3 µM: [14]

CC(C)N(C(=O)C12C3C4C1C1C2C3C41C(N)=O)C(C)C (centres undefined)
inactive: [1] > 100 µM | [2] > 100 µM | [3] > 100 µM | [6] > 100 µM | [64] > 100 µM | [8] > 100 µM | [17] > 100 µM | [56] > 100 µM | [18] > 100 µM | [20] > 100 µM | [21] > 100 µM | [22] > 100 µM | [23] > 100 µM | [65] > 100 µM | [24] > 100 µM | [25] > 100 µM | [26] > 100 µM | [27] > 100 µM | [29] > 100 µM | [66] > 100 µM | [30] > 100 µM | [31] > 100 µM | [33] > 100 µM | [34] > 100 µM | [35] > 100 µM | [37] > 100 µM | [38] > 100 µM | [39] > 100 µM | [40] > 100 µM | [41] > 100 µM | [67] > 100 µM | [44] > 100 µM | [62] > 100 µM | [46] > 100 µM | [47] > 100 µM | [68] > 100 µM | [49] > 100 µM
> 100 µM: [14]
